# Experimental data: PubChem BioAssay AID1259407 (Chemical Carcinogenesis Research Information System (CCRIS), 2018)
# Activity calls are given as the source filed them. No rule for the calls is given here.
# Test system: CCRIS mutagenicity, Ames/micronucleus/aberration tests
# Assay: CCRIS mutagenicity studies
# [1] = Test System: AMES SALMONELLA TYPHIMURIUM, Strain/Indicator: TA98, Metabolic Activation: NONE, Method: STANDARD PLATE
# [2] = Test System: AMES SALMONELLA TYPHIMURIUM, Strain/Indicator: TA98, Metabolic Activation: RAT, LIVER, S-9, AROCLOR 1254, Method: STANDARD PLATE
# [3] = Test System: AMES SALMONELLA TYPHIMURIUM, Strain/Indicator: TA100, Metabolic Activation: NONE, Method: STANDARD PLATE
# [4] = Test System: AMES SALMONELLA TYPHIMURIUM, Strain/Indicator: TA100, Metabolic Activation: RAT, LIVER, S-9, AROCLOR 1254, Method: STANDARD PLATE
# [5] = Test System: AMES SALMONELLA TYPHIMURIUM, Strain/Indicator: TA1535, Metabolic Activation: NONE, Method: STANDARD PLATE
# [6] = Test System: AMES SALMONELLA TYPHIMURIUM, Strain/Indicator: TA1535, Metabolic Activation: RAT, LIVER, S-9, AROCLOR 1254, Method: STANDARD PLATE
# [7] = Test System: AMES SALMONELLA TYPHIMURIUM, Strain/Indicator: TA1538, Metabolic Activation: NONE, Method: STANDARD PLATE
# [8] = Test System: AMES SALMONELLA TYPHIMURIUM, Strain/Indicator: TA1538, Metabolic Activation: RAT, LIVER, S-9, AROCLOR 1254, Method: STANDARD PLATE
# [9] = Test System: AMES SALMONELLA TYPHIMURIUM, Strain/Indicator: TA1537, Metabolic Activation: NONE, Method: STANDARD PLATE
# [10] = Test System: AMES SALMONELLA TYPHIMURIUM, Strain/Indicator: TA1537, Metabolic Activation: RAT, LIVER, S-9, AROCLOR 1254, Method: STANDARD PLATE
smiles,measurement,setting,value
CCCCC/C=C/C(=O)CCc1ccc(O)c(OC)c1,mutagenic call,[1],inactive; negative
same,mutagenic call,[2],inactive; negative
same,mutagenic call,[3],inactive; negative
same,mutagenic call,[4],active; positive
same,mutagenic call,[5],inactive; negative
same,mutagenic call,[6],active; positive
same,mutagenic call,[7],inactive; negative
same,mutagenic call,[8],inactive; negative
O[C@@H]1[C@@H]2O[C@@H]2c2c(ccc3nc4ccc5ccccc5c4cc23)[C@H]1O,mutagenic call,[1],active; positive
same,mutagenic call,"Test System: AMES SALMONELLA TYPHIMURIUM, Strain/Indicator: TA100, Metabolic Activation: GUINEA PIG, LIVER, S-9, 3-METHYLCHOLANTHRENE, Method: STANDARD PLATE",active; positive
same,mutagenic call,[3],active; positive
same,mutagenic call,"Test System: CHINESE HAMSTER V-79, Strain/Indicator: V-79/6-THIOGUANINE, Metabolic Activation: NONE",active; positive
Cc1cc(N)cc(C)c1N,mutagenic call,[1],inactive; negative
same,mutagenic call,[2],inactive; negative
same,mutagenic call,[3],inactive; negative
same,mutagenic call,[4],inactive; negative
same,mutagenic call,[5],inactive; negative
same,mutagenic call,[6],inactive; negative
same,mutagenic call,[9],inactive; negative
same,mutagenic call,[10],inactive; negative
same,mutagenic call,[7],inactive; negative
same,mutagenic call,[8],inactive; negative
CC(Br)C(Br)CCl (centres undefined),mutagenic call,"Test System: AMES SALMONELLA TYPHIMURIUM, Strain/Indicator: TA100, Metabolic Activation: RAT, LIVER, MICROSOMES, PHENOBARBITAL, Method: PREINCUBATION",active; positive
same,mutagenic call,"Test System: AMES SALMONELLA TYPHIMURIUM, Strain/Indicator: TA100, Metabolic Activation: RAT, LIVER, MICROSOMES, Method: PREINCUBATION",active; positive
COC(=O)[C@H](C)CN=[N+]=[N-],mutagenic call,"Test System: AMES SALMONELLA TYPHIMURIUM, Strain/Indicator: TA100, Metabolic Activation: RAT, LIVER, S-9, PCB, Method: PREINCUBATION",active; positive
O=[N+]([O-])c1c2ccccc2c2ccc3cccc4ccc1c2c43,mutagenic call,"Test System: AMES SALMONELLA TYPHIMURIUM, Strain/Indicator: TA98 (1,8-DNP6), Metabolic Activation: NONE, Method: STANDARD PLATE",inactive; negative
same,mutagenic call,"Test System: AMES SALMONELLA TYPHIMURIUM, Strain/Indicator: TA98 (NR), Metabolic Activation: NONE, Method: STANDARD PLATE",inactive; negative
same,mutagenic call,[1],inactive; negative
same,mutagenic call,"Test System: AMES SALMONELLA TYPHIMURIUM, Strain/Indicator: TA98, Metabolic Activation: NONE, Method: STANDARD PLATE (ANAEROBIC)",inactive; negative
same,mutagenic call,"Test System: AMES SALMONELLA TYPHIMURIUM, Strain/Indicator: TA98, Metabolic Activation: RAT, LIVER, HEPATOCYTES, AROCLOR 1254",inactive; negative
same,mutagenic call,"Test System: AMES SALMONELLA TYPHIMURIUM, Strain/Indicator: TA98, Metabolic Activation: RAT, LIVER, S-9, 3-METHYLCHOLANTHRENE, Method: STANDARD PLATE",active; positive
same,mutagenic call,[2],active; positive
same,mutagenic call,"Test System: AMES SALMONELLA TYPHIMURIUM, Strain/Indicator: TA98, Metabolic Activation: RAT, LIVER, S-9, BETA-NAPHTHOFLAVONE, Method: STANDARD PLATE",active; positive
same,mutagenic call,"Test System: AMES SALMONELLA TYPHIMURIUM, Strain/Indicator: TA98, Metabolic Activation: RAT, LIVER, S-9, PHENOBARBITAL, Method: STANDARD PLATE",inactive; negative
same,mutagenic call,[3],inactive; negative
same,mutagenic call,"Test System: AMES SALMONELLA TYPHIMURIUM, Strain/Indicator: TA100, Metabolic Activation: RAT, LIVER, S-9, AROCLOR 1254 (20 OR 50 µL), Method: STANDARD PLATE",active; positive
same,mutagenic call,"Test System: CHINESE HAMSTER OVARY, Strain/Indicator: CHO-K1-BH4 (HGPRT), Metabolic Activation: NONE",inactive; negative
same,mutagenic call,"Test System: CHO/HGPRT, Strain/Indicator: CHO-K1-BH4, Metabolic Activation: NONE",inactive; negative
same,mutagenic call,"Test System: CHO/HGPRT, Strain/Indicator: CHO-K1-BH4, Metabolic Activation: RAT, LIVER, HEPATOCYTES",inactive; negative
same,mutagenic call,"Test System: CHO/HGPRT, Strain/Indicator: CHO-K1-BH4, Metabolic Activation: RAT, LIVER, HEPATOCYTES, 3-METHYLCHOLANTHRENE",inactive; negative
same,mutagenic call,"Test System: CHO/HGPRT, Strain/Indicator: CHO-K1-BH4, Metabolic Activation: RAT, LIVER, HEPATOCYTES, AROCLOR 1254",inactive; negative
same,mutagenic call,"Test System: CHO/HGPRT, Strain/Indicator: CHO-K1-BH4, Metabolic Activation: RAT, LIVER, S-9",inactive; negative
same,mutagenic call,"Test System: CHO/HGPRT, Strain/Indicator: CHO-K1-BH4, Metabolic Activation: RAT, LIVER, S-9, 3-METHYLCHOLANTHRENE",inactive; negative
same,mutagenic call,"Test System: CHO/HGPRT, Strain/Indicator: CHO-K1-BH4, Metabolic Activation: RAT, LIVER, S-9, AROCLOR 1254",inactive; negative
O=[N+]([O-])c1ccc2c3c(ccc([N+](=O)[O-])c13)-c1ccccc1-2,mutagenic call,"Test System: AMES SALMONELLA TYPHIMURIUM, Strain/Indicator: TA97, Metabolic Activation: NONE",active; positive
same,mutagenic call,"Test System: AMES SALMONELLA TYPHIMURIUM, Strain/Indicator: TA98(1,8-DNP6), Metabolic Activation: NONE",active; positive
same,mutagenic call,"Test System: AMES SALMONELLA TYPHIMURIUM, Strain/Indicator: TA98(NR), Metabolic Activation: NONE",active; positive
same,mutagenic call,"Test System: AMES SALMONELLA TYPHIMURIUM, Strain/Indicator: TA98, Metabolic Activation: NONE",active; positive
same,mutagenic call,"Test System: AMES SALMONELLA TYPHIMURIUM, Strain/Indicator: TA100, Metabolic Activation: NONE",active; positive
same,mutagenic call,"Test System: AMES SALMONELLA TYPHIMURIUM, Strain/Indicator: TA1535, Metabolic Activation: NONE",inactive; negative
same,mutagenic call,"Test System: AMES SALMONELLA TYPHIMURIUM, Strain/Indicator: TA1537, Metabolic Activation: NONE",active; positive
same,mutagenic call,"Test System: AMES SALMONELLA TYPHIMURIUM, Strain/Indicator: TA1538, Metabolic Activation: NONE",active; positive
same,mutagenic call,"Test System: AMES SALMONELLA TYPHIMURIUM, Strain/Indicator: TA1978, Metabolic Activation: NONE",inactive; negative
CC(=O)ON(OCc1ccc(Cl)cc1)C(=O)c1ccccc1,mutagenic call,[3],active; positive
same,mutagenic call,"Test System: AMES SALMONELLA TYPHIMURIUM, Strain/Indicator: TA100, Metabolic Activation: RAT, S-9, AROCLOR, Method: STANDARD PLATE",active; positive
C1CCC(C2(C3CCCCC3)COCCOCCOCCOCCOCCOCCO2)CC1,mutagenic call,[1],inactive; negative
same,mutagenic call,[2],inactive; negative
same,mutagenic call,[3],inactive; negative
same,mutagenic call,[4],inactive; negative
same,mutagenic call,"Test System: AMES SALMONELLA TYPHIMURIUM, Strain/Indicator: TA1530, Metabolic Activation: NONE, Method: STANDARD PLATE",inactive; negative
same,mutagenic call,"Test System: AMES SALMONELLA TYPHIMURIUM, Strain/Indicator: TA1530, Metabolic Activation: RAT, LIVER, S-9, AROCLOR 1254, Method: STANDARD PLATE",inactive; negative
same,mutagenic call,[9],inactive; negative
same,mutagenic call,[10],inactive; negative
Clc1cnc2ccccc2c1,mutagenic call,"Test System: AMES SALMONELLA TYPHIMURIUM, Strain/Indicator: TA100, Metabolic Activation: RAT, LIVER, S-9, PHENOBARBITAL AND 5,6-BENZOFLAVONE, Method: PREINCUBATION",inactive; negative
